US20260221482A1, “REDOX FLOW BATTERY” (CAMBRIDGE ENTERPRISE LIMITED, priority 2023, published 2026)

Legend:
Type in all cases: physicochemical
[1] = Cyclic voltammetry in N2 purged 0.1 M NaCl aqueous solutions; conditions: 1 mM
Experimental: Cyclic voltammetry experiments were carried out at 25° C. in N2 purged 0.1 M NaCl aqueous solutions with a Metrohm Eco Chemie Autolab PGSTAT12 potentiostat, working on GPES 4.9 software. A three-electrode configuration was used with a 3 mm or 1.6 mm glassy carbon working electrode, a platinum counter electrode, and RE-5B Ag/AgCl BASI reference electrode. The glassy carbon electrode was polished before each measurement using a 0.05 μm alumina-H2O slurry on a polishing cloth. CV was performed at 1 mM concentrations of the respective compound using a scan rate of 20 mV s^−1.

[2] = Rates of electron transfer
[3] = In situ DOSY NMR of flowing electrolyte at various SOCs; conditions: diffusivity
Experimental: Pseudo-2D NMR experiments were performed on the flowing electrolyte solution by direct excitation with a 90° radiofrequency pulse. Each NMR spectrum is acquired by collecting eight free induction decays with a recycle delay of 15 s. The pulse width for a 90° pulse was 27 μs at 30 W. All spectra were referenced to the water chemical shift at 4.79 ppm. NMR data were processed using TopSpin 3.6.3 (Bruker). EPR data were processed using EasySpin version 5.2.30. Electrochemical data were processed using EC-lab 11.36 (BioLogic).
The flow was stopped during the acquisition period (12 min) to carry out the DOSY NMR.
In situ DOSY NMR experiments carried out for 10, 11, and 13 at 0%, 50%, and 100% SOC (Table 1).

[4] = EPR and CV modelling studies of redox equilibria (comproportionation, π-dimerisation); conditions: for Kc from CV: comproportionation equilibrium constant from CV curve fitting; for Kd: equilibrium constant of π-dimerisation of singly reduced form, estimated at 50% SOC; for Kc, obs from EPR: observed comproportionation equilibrium constant, fit of spin counting radical fraction
Experimental: An analysis of compounds 10, 11, and 13 associated redox equilibria was carried out. Expressing the two single electron reductions as a comproportionation equilibrium with an equilibrium constant of comproportionation, Kc, an equation for radical fraction as a function of battery SOC was obtained.
The difference between redox events is related to the comproportionation equilibrium constant Kc by:
For the compounds comproportionation equilibrium:
fits to experimental radical concentration data were obtained by:
Where n is the number of electrons that have been removed from the system, starting from 100% SOC and x is the fraction of radicals.
For π-dimerisation equilibria, Kd values were estimated as follows. At 50% SOC, 1 electron equivalent of the starting concentration of viologen, V0, has been added to create reduced species, thus giving the previous result:
As the initial concentration (V0), Kc and the radical concentration (V^3+·) at this state of charge is known, the dimerisation constant can be calculated with:
This equation was used to fit experimental radical fraction data obtained by the EPR-based method of spin counting, from which the observed comproportionation equilibrium constant Kc,obs was extracted. Upon fitting, Kc,obs values of 0.75, 0.021 and 0.0021 were found for 10, 11, and 13, respectively (Table 2).
The equation was also used for CV curve fitting, from which much better agreement with experimental data was obtained. Relating the difference in first and second redox events obtained by CV curve fitting to Kc, ‘true’ Kc values could be estimated and compared to Kc,obs values. Respective Ko values for 10, 11, and 13 were 3.2×10^5, 1.3 and 2.9 (see Table 2)—substantially higher than the Kc,obs values. […] The strongest candidates for these are dimerisation equilibria.

[5] = Additional cyclic voltammetry under nitrogen and under air; conditions: 1 mM, 0.1 M NaCl
Experimental: Cyclic voltammetry experiments were carried out for aqueous solutions of compound 20 and 10 at 25° C. and a concentration of 1 mM in 0.1 M NaCl with a Metrohm Eco Chemie Autolab PGSTAT12 potentiostat, working on GPES 4.9 software. Where the CV was carried out under nitrogen the solution was purged with nitrogen. A three-electrode configuration was used with a 3 mm glassy carbon working electrode, a platinum counter electrode, and RE-5B Ag/AgCl BASI reference electrode. The glassy carbon electrode was polished before each measurement using a 0.05 μm alumina-H2O slurry on a polishing cloth. CV was performed using a scan rate of 20 mV s^−1.

C[N+](C)(C)CCC[n+]1ccc(-c2ccc(-c3ccc(-c4cc[n+](CCC[N+](C)(C)C)cc4)cc3)cc2)cc1 [Compound 16]
redox reversibility by cyclic voltammetry [1]: electrochemically irreversible

C[N+](C)(C)CCC[n+]1ccc(-c2ccc(-c3ccc(-c4cc[n+](CCC[N+](C)(C)C)cc4)s3)s2)cc1 [Compound 18]
redox reversibility by cyclic voltammetry [1]: reversible redox processes

O=O [Compound O2, dioxygen]
rate of electron transfer k0 [2]: 0.00084 cm/s

C[N+](C)(C)CCC[n+]1ccc(-c2ccc(-c3cc[n+](CCC[N+](C)(C)C)cc3)s2)cc1 [Compound 17]
redox reversibility by cyclic voltammetry [1]: reversible redox processes | reversible potential, second reduction ([1]; vs SHE, 25° C., 20 mV s^−1): −0.67 V | rate of electron transfer k0 [2]: 0.0028 cm/s

C[N+](C)(C)CCC[n+]1ccc(-c2c3ccccc3c(-c3cc[n+](CCC[N+](C)(C)C)cc3)c3ccccc23)cc1 [Compound 15]
redox reversibility by cyclic voltammetry [1]: electrochemically irreversible

C[N+](C)(C)CCC[n+]1ccc(-c2ccc3cc(-c4cc[n+](CCC[N+](C)(C)C)cc4)ccc3c2)cc1 [Compound 13]
redox reversibility by cyclic voltammetry [1]: reversible redox processes | D at 0% SOC [3]: 2.8 ± 0.1 ×10^−10 m^2 s^−1 | D at 50% SOC [3]: 1.9 ± 0.2 ×10^−10 m^2 s^−1 | D at 100% SOC [3]: 2.1 ± 0.5 ×10^−10 m^2 s^−1 | average Kc extracted from the radical concentration [4]: 0.002 | Kc from CV [4]: 2.9 | Kd [4]: 76 mM⁻¹ | Kc, obs from EPR [4]: 0.0021

C[N+](C)(C)c1ccc(-[n+]2ccc(-c3cc[n+](-c4ccc([N+](C)(C)C)cc4)cc3)cc2)cc1 [Compound 20]
tolerance to oxygen (voltammogram under nitrogen vs under air) [5]: highly tolerant to the presence of oxygen | reversible reduction potential, first ([5]; vs SHE, 25° C., 20 mV s^−1): −0.147 V | reversible reduction potential, second ([5]; vs SHE, 25° C., 20 mV s^−1): −0.386 V

C[N+](C)(C)CCC[n+]1ccc(-c2cc[n+](CCC[N+](C)(C)C)cc2)cc1 [Compound 10]
redox reversibility by cyclic voltammetry [1]: reversible redox processes | reversible potential, first reduction ([1]; vs SHE, 25° C., 20 mV s^−1): −0.35 V | reversible potential, second reduction ([1]; vs SHE, 25° C., 20 mV s^−1): −0.68 V | D at 0% SOC [3]: 3.6 ± 0.1 ×10^−10 m^2 s^−1 | D at 50% SOC [3]: 3.6 ± 0.2 ×10^−10 m^2 s^−1 | D at 100% SOC [3]: 3.4 ± 0.1 ×10^−10 m^2 s^−1 | average Kc extracted from the radical concentration [4]: 0.7 | Kc from CV [4]: 3.2×10^5 | Kd [4]: 0.28 mM⁻¹ | Kc, obs from EPR [4]: 0.75

C[N+](C)(C)CCC[n+]1ccc(-c2cccc(-c3cc[n+](CCC[N+](C)(C)C)cc3)n2)cc1 [Compound 19]
redox reversibility by cyclic voltammetry [1]: does not have a reversible potential

C[N+](C)(C)CCC[n+]1ccc(-c2ccc(-c3cc[n+](CCC[N+](C)(C)C)cc3)c3ccccc23)cc1 [Compound 12]
redox reversibility by cyclic voltammetry [1]: reversible redox processes

C[N+](C)(C)CCC[n+]1ccc(-c2ccc3ccc(-c4cc[n+](CCC[N+](C)(C)C)cc4)cc3c2)cc1 [Compound 14]
redox reversibility by cyclic voltammetry [1]: does not have a reversible potential

C[N+](C)(C)CCC[n+]1ccc(-c2ccc(-c3cc[n+](CCC[N+](C)(C)C)cc3)cc2)cc1 [Compound 11]
redox reversibility by cyclic voltammetry [1]: reversible redox processes | D at 0% SOC [3]: 3.1 ± 0.1 ×10^−10 m^2 s^−1 | D at 50% SOC [3]: 2.4 ± 0.2 ×10^−10 m^2 s^−1 | D at 100% SOC [3]: 1.6 ± 0.1 ×10^−10 m^2 s^−1 | average Kc extracted from the radical concentration [4]: 0.2 | Kc from CV [4]: 1.3 | Kd [4]: 11 mM⁻¹ | Kc, obs from EPR [4]: 0.021 | rate of electron transfer k0 [2]: 0.0198 cm/s
